Results published in patent publication US11229628B2, “TRPA1 and TRPV4 inhibitors and methods of using the same for organ-specific inflammation and itch” (Duke University, priority 2015, dated 2022).
Entries after “also recorded” stand apart in the source; their conditions may differ.

Key:
TRPV4 = biological target: T1, TRPV4 (Mus musculus, UniProt Q9EPK8); experiment: GSK101-evoked Ca++ transient in 1° MK (fura-2); type: cell-based; conditions: 5 nM GSK101; 20 μM GSK205
T1 construct: Primary mouse keratinocytes were derived from back skin of newborn mice; endogenous in cells; host or cells: primary mouse epidermal keratinocytes (1° MK), wild type
Procedure: Ca++ imaging of mouse 1° MK in response to chemical activation of TRPV4 was conducted after loading with 2 μM fura2-AM, following a ratiometric Ca2+ imaging protocol with 340/380 nm […] for dual excitation. Ratios of emissions were acquired at 0.5 Hz. ΔR/R0 was determined as the fraction of the increase of a given ratio over baseline ratio, divided by baseline ratio. For stimulation of cells with UVB, where fura-2 was not suitable because of the proximity of stimulation with 340/380 nm and 295 nm, 2 μM fluo4-AM was used instead. Ca++ imaging was carried out at 488 nm excitation, acquisition of emissions at 0.5 Hz, expressed as ΔF/F0. In the custom-built UV optical system, UV LEDs were capped with a ball lens, a transparent optical window in the shape of a hemispherical lens (FIG. 2B). The LED output optical beam focused at 15-20 mm from the lens, with a spot diameter of approximately 1.5˜2.0 mm (FIG. 2C). […] The thermal equilibration stage was set for physiological temperature. We confirmed the non-thermal nature of UVB stimulation using the customized 295 nm LED device in a dedicated experiment (FIG. 2D), thus confirming the specific modality of stimulation as UVB.
We obtained corroborating findings by chemically activating TRPV4 with GSK101, which can directly stimulate TRPV4 in WT 1° MK. […]

ET1 expression in 1° MK = experiment: ET1 expression by UVB-exposed 1° MK (immunocytochemistry); type: cell-based, mouse; conditions: 295 nm UVB-LED, 24 hours
Procedure: 1° MK were exposed to UVB using the UV optical system (295 nm LED). 24 hours later the cells were fixed and fluorescently immunolabeled for ET1. Digital images were captured and subjected to morphometry.
Mouse keratinocytes were cultured on collagen coated quartz coverslips and then stimulated from the bottom using the previously mentioned UV optical system using the 295 nm LED. 24 hours later the cells were fixed in 4% formaldehyde in PBS for 20 minutes, permeabilized with 0.1% Triton X-100 in PBS for 10 minutes, washed, then blocked in 10% normal goat serum in PBS for 45 minutes. Coverslips were incubated overnight with primary antibody mouse anti-ET1 (1:200; Abcam), washed three times in PBS and incubated with secondary antibody for 2 hours at 25° C. Coverslips were washed three times in PBS, once with double-distilled H2O. Digital images were captured using a 40× immersion lens on the BX61 Olympus upright microscope. Morphometric analysis was conducted using ImageJ freeware with tailored regions-of-interest.
We tested whether UVB causes ET1 upregulation in a TRPV4-dependent manner. Given the exquisite wave-length dependence of ET1 expression in 1° MKs, we resorted to the UVB-LED device as for Ca++ imaging (FIG. 6A and FIG. 2A-D). […] Consistent with its effects on UVB-evoked Ca++ transients, PLC-inhibitor U73122 also dampened ET1 expression. […] This leads to TRPV4-dependent Ca++ signaling, which in turn amplifies ET1 signaling in a paracrine/autocrine fashion.

[1] = system: periostin secretion by keratinocytes; experiment: Periostin secretion by keratinocytes in response to histamine; type: cell-based
Source text: As detailed in the Examples, secretion of periostin (93 kDa protein) by keratinocytes in response to histamine exposure is dependent on TRPV4. […] Periostin has a role in chronic allergic skin inflammation and also pathologic-fibrotic remodeling of the skin. Histamine activates TRPV4 channels via specific activation of histamine H1R-receptors in keratinocytes. This TRPV4-dependent calcium influx regulates release of periostin from keratinocytes. In terms of fibrotic tissue remodeling of organs, TRPV4 channels expressed by fibroblasts may have a role in lung fibrosis evoked by bleomycin, which may relate to fibroblasts elsewhere, including skin fibroblasts and synovial fibroblasts. Inhibitors as detailed herein may potently block TRPV4 activation in keratinocytes and also skin fibroblasts. Based on the above signaling mechanisms, this will attenuate and prevent fibrotic responses in the skin, also chronic skin-remodeling tissue responses mediated by endogenous pathogenetic mediator molecules such as periostin. As for synovia of the joint, one response to joint trauma is development of synovial fibrosis and contracture. Synoviocytes, synovial fibroblasts and infiltrating inflammatory cells may have roles in this maladaptive response, as all of these cells are known to express TRPV4. […]

IL-1β secretion by 1° MK = experiment: IL-1β secreted by cultured keratinocytes after UVB exposure (ELISA); type: cell-based, mouse; conditions: 5 μM GSK205
Procedure: Before UV irradiation, culture media was replaced with PBS. The cells were then irradiated at a dose of 50 mJ/cm^2 with UVB. 24 hours later, supernatants were assayed using IL-1β ELISA (R&D Systems, Minneapolis, Minn.).
We also tested the response of down-stream UVB effector mechanisms to GSK205 treatment in vivo.

T1 sequence (Q9EPK8 whole entry): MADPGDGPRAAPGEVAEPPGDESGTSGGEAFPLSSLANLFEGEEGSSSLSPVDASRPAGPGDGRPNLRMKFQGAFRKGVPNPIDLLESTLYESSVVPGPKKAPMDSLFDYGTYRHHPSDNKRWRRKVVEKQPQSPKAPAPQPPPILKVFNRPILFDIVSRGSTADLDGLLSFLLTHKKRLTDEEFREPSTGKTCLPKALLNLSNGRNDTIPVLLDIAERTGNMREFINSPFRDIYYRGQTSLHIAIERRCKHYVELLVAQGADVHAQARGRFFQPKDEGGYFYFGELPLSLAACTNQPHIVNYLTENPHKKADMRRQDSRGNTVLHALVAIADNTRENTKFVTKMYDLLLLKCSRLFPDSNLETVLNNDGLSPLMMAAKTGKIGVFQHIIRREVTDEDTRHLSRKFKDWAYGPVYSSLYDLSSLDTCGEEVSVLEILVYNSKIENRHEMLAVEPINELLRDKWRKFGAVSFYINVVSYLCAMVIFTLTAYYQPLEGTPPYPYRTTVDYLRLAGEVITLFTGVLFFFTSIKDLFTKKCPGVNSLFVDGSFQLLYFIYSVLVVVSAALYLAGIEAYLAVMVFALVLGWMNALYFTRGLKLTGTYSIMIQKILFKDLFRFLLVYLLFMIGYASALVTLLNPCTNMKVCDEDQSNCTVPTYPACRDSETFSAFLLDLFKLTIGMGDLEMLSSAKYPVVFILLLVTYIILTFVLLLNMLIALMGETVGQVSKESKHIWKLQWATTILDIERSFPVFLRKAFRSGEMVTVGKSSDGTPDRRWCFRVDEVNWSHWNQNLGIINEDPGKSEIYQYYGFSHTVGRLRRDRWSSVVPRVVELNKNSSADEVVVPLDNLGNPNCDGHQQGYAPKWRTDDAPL

For `CN(CCc1ccc(Nc2nc(-c3cccnc3)cs2)cc1)Cc1ccccc1` [GSK205], the “GSK101-evoked Ca++ transient” value (TRPV4) was “eliminated; also recorded: completely blocked”, the “ET1 immunoreactivity in UVB-exposed 1° MK” value (ET1 expression in 1° MK) was “diminished; also recorded: significant down-regulation” and the “secretion of periostin by histamine-stimulated keratinocytes” value [1] was “completely eliminated”. The “UVB-induced increase in IL-1β secretion by 1° MK” value (IL-1β secretion by 1° MK) was “completely eliminated; also recorded: prevention of increase in IL-1β secretion”.
